Values of other authors as cited in patent publication US7767860B2, “Substituted amino alcohols” (Auspex Pharmaceuticals, Inc, priority 2007, dated 2010).

System: Mycobacterium tuberculosis
Conditions: fold more potent; Hausler et al 2001; Stauffer et al 2002

## CC[C@@H](CO)NCCN[C@@H](CC)CO [Ethambutol, 2-[2-(1-hydroxybutan-2-ylamino)ethylamino]butan-1-ol]
  potency of the (S,S)-enantiomer relative to the (R,R)-enantiomer and the meso-isomer: 200-500 times
